Consider three molecules from paper PMC6375636, “Monotherapy with a low-dose lipopeptide HIV fusion inhibitor maintains long-term viral suppression in rhesus macaques” (PLoS Pathogens, 2019).

What is called IC50 is the concentration that gives 50% inhibition.

The target in series [1] is T1, gp41 NHR-derived target mimic peptide N39 (Human immunodeficiency virus type 1 group M subtype B, UniProt P04578).
T1 construct: the gp41 NHR-derived target mimic peptide N39
As to the kind of experiment: CD spectroscopy of lipopeptides in complex with target mimic peptide N39. The note with it: complex with N39, each peptide 10 μM in PBS; representative of 2 assays. Further details: [θ]222: unit not given here. In kind it is binding, HIV-1. An excerpt: Spectra were corrected by subtracting a solvent blank.

For a further series, the target named is HIV-1JRCSF. Type of series: cell-based. The note with it: Fig 1; replication-competent virus; mean ± SD of three assays in triplicate; read-out: Anti-HIV activity (IC50, pM) JRCSF infection. The method, then: (§1) The inhibitory activities of inhibitors against HIV-1 pseudoviruses and replication-competent isolates were measured as described previously. Briefly, HIV-1 pseudoviruses were generated via the cotransfection of HEK293T cells with an Env-expressing plasmid and a backbone plasmid that encodes Env-defective, luciferase-expressing HIV-1 genome (pSG3Δenv). Viral stocks of replication-competent HIV-1 isolates were generated by transfecting viral molecular clones into HEK293T cells. Culture supernatants were harvested at 48 h posttransfection, and 50% tissue culture infectious doses (TCID50) in TZM-bl cells were determined. Inhibitors were prepared in 3-fold dilutions, mixed with 100 TCID50 of a virus, and then incubated for 1 h at room temperature. The mixture was added to TZM-bl cells (10^4/well), and the cells were incubated for additional 48 h at 37°C. Luciferase activity was measured as described above.

The target in a further series is T2, HIV-1HXB2 Env (Human immunodeficiency virus type 1 group M subtype B, UniProt P04578).
T2 construct: HL2/3 cells, which stably express high levels of Env, Gag, Tat, Rev, and Nef proteins of the integrated HIV-1 molecular clone HXB2/3gpt; host or cells: HL2/3 cells (effector), cocultured with TZM-bl target cells
The experiment in a line: HIV-1HXB2 Env-mediated cell-cell fusion (HL2/3 effector, TZM-bl target, luciferase reporter). Type of series: cell-based. The protocol:
The inhibitory activities of inhibitors on HIV-1HXB2 Env-mediated cell-cell fusion were determined by a reporter gene assay based on the activation of an HIV LTR-driven luciferase cassette in TZM-bl cells (target) by HIV-1 tat from HL2/3 cells (effector). Briefly, 1 x 10^4/well of TZM-bl cells were plated in 96-well plates and incubated at 37°C overnight. Then, 3 x 10^4/well of HL2/3 cells were cocultured with target cells for 6 h at 37°C in the presence or absence of an inhibitor at graded concentrations. Luciferase activity was measured using luciferase assay reagents and a Luminescence Counter (Promega, Madison, Wisconsin, USA).
On the technique in general: Reporter assays use an easily measured gene product as a stand-in for the process of interest.

For series [2] the following is noted: lipopeptide alone, 10 μM in PBS; [θ]222 / -33,000; representative of 2 assays.
The test system of series [3] is HIV-1NL4-3(D36G) pseudovirus. Type of series: cell-based. To be noted: Fig 1; NL4-3(D36G) pseudovirus; mean ± SD of three assays in triplicate; read-out: Anti-HIV activity (IC50, pM) NL4-3 entry. The protocol:
as §1, with “Culture supernatants were harvested at 48 h posttransfection, and 50% tissue culture infectious doses (TCID50) in TZM-bl cells were determined.” left out, “The mixture was added to TZM-bl cells (10^4/well), and the cells were incubated for additional 48 h at 37°C.” left out

Peptide text beside a SMILES is read from it. * marks the point of attachment. Stearoyl = CCCCCCCCCCCCCCCCCC(=O)*

T1 sequence (P04578 528-566): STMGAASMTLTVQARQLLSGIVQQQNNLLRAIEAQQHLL
T2 sequence (P04578 512-856): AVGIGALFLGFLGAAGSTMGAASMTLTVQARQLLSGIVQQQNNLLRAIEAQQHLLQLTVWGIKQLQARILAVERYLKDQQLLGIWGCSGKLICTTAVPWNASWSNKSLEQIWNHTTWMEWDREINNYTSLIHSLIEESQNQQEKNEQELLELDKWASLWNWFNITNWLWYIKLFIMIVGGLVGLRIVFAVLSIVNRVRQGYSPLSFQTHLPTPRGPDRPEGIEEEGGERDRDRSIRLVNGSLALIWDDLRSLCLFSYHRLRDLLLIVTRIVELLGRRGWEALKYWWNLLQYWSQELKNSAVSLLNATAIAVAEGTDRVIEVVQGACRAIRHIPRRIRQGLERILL

Consider `CCCCCCCCCCCCCCCCCC(=O)NCCCC[C@H](NC(=O)[C@H](CCC(=O)O)NC(=O)[C@H](CC(C)C)NC(=O)[C@H](CCCCN)NC(=O)[C@H](CCCCN)NC(=O)[C@H](CC(C)C)NC(=O)[C@H](CCC(=O)O)NC(=O)[C@H](CCC(=O)O)NC(=O)[C@H](CCC(=O)O)NC(=O)[C@H](CC(N)=O)NC(=O)[C@H](CCCCN)NC(=O)[C@H](CCCCN)NC(=O)[C@H](CCC(N)=O)NC(=O)[C@H](CCC(N)=O)NC(=O)[C@H](CCC(=O)O)NC(=O)[C@H](CCC(=O)O)NC(=O)[C@H](C)NC(=O)[C@H](CCCCN)NC(=O)[C@H](CCCCN)NC(=O)[C@H](CC(C)C)NC(=O)[C@H](CC(C)C)NC(=O)[C@H](CCC(=O)O)NC(=O)[C@H](CCC(=O)O)NC(=O)[C@@H](NC(=O)[C@H](CCCCN)NC(C)=O)[C@@H](C)CC)C(N)=O` [LP-89] (Ac-KIEELLKKAEEQQKKNEEELKKLEK(Stearoyl)-NH2), for which the results for the “Helix content (%)” value in series [1] and in series [2] were 51% and 43%, respectively. The “[θ]222” value in series [1] was -16781. The half-maximal inhibitory concentration (IC50) at HIV-1JRCSF is 12.4 ± 1.22 pM; against HIV-1HXB2 Env, 73.3 ± 21 pM; in series [3], 10.8 ± 3.14 pM.
`CCCCCCCCCCCCCCCCCC(=O)NCCCC[C@H](NC(=O)[C@H](CCCCN)NC(=O)[C@H](CC(C)C)NC(=O)[C@H](CCC(=O)O)NC(=O)[C@H](CCC(=O)O)NC(=O)[C@H](CCC(=O)O)NC(=O)[C@H](CC(N)=O)NC(=O)[C@H](CCCCN)NC(=O)[C@H](CCCCN)NC(=O)[C@H](CCC(N)=O)NC(=O)[C@H](CCC(N)=O)NC(=O)[C@H](CCC(=O)O)NC(=O)[C@H](CCC(=O)O)NC(=O)[C@H](C)NC(=O)[C@H](CCCCN)NC(=O)[C@H](CCCCN)NC(=O)[C@H](CC(C)C)NC(=O)[C@H](CC(C)C)NC(=O)[C@H](CCC(=O)O)NC(=O)[C@H](CCC(=O)O)NC(=O)[C@@H](NC(=O)[C@H](CCCCN)NC(=O)[C@H](CCC(N)=O)NC(=O)[C@H](CCC(=O)O)NC(=O)[C@H](Cc1c[nH]c2ccccc12)NC(C)=O)[C@@H](C)CC)C(N)=O` [LP-91] (Ac-WEQKIEELLKKAEEQQKKNEEELKK(Stearoyl)-NH2): the “Helix content (%)” value is on record as 55% in series [1] and 42% in series [2]. Besides, the “[θ]222” value in series [1] is listed as -18156. Besides, the 50% inhibitory concentration (IC50) on HIV-1JRCSF was 11.1 ± 2.13 pM; against HIV-1HXB2 Env, 13.1 ± 1.25 pM; in series [3] it was 7.33 ± 0.49 pM.
For the molecule `CCCCCCCCCCCCCCCCCC(=O)NCCCC[C@H](NC(=O)[C@H](CCCCN)NC(=O)[C@H](CC(C)C)NC(=O)[C@H](CCC(=O)O)NC(=O)[C@H](CCC(=O)O)NC(=O)[C@H](CCC(=O)O)NC(=O)[C@H](CC(N)=O)NC(=O)[C@H](CCCCN)NC(=O)[C@H](CCCCN)NC(=O)[C@H](CCC(N)=O)NC(=O)[C@H](CCC(N)=O)NC(=O)[C@H](CCC(=O)O)NC(=O)[C@H](CCC(=O)O)NC(=O)[C@H](C)NC(=O)[C@H](CCCCN)NC(=O)[C@H](CCCCN)NC(=O)[C@H](CC(C)C)NC(=O)[C@H](CC(C)C)NC(=O)[C@H](CCC(=O)O)NC(=O)[C@H](CCC(=O)O)NC(=O)[C@@H](NC(C)=O)[C@@H](C)CC)C(N)=O` [LP-92] (Ac-IEELLKKAEEQQKKNEEELKK(Stearoyl)-NH2), the results for the “Helix content (%)” value in series [1] and in series [2] were 38% and 16%, respectively. Further, the “[θ]222” value in series [1] is -12476. Also, the IC50 was determined as 229 ± 28.4 pM at HIV-1JRCSF, 189 ± 19.9 pM at HIV-1HXB2 Env and 168 ± 20.6 pM in series [3].
